For experiment [1], the target named is Brain AChE (acetylcholinesterase, rat striatum) (Rattus norvegicus, UniProt P37136). In words: biochemical. On the set-up: species or system rat (male Wistar).
The subject of experiment [2] is Scopolamine Induced Memory Deficit (mice). The note with it: mouse, in vivo, sc.

Like-named read-outs stand apart in the source and are kept apart here.

Brain AChE (acetylcholinesterase, rat striatum), sequence (P37136 32-614): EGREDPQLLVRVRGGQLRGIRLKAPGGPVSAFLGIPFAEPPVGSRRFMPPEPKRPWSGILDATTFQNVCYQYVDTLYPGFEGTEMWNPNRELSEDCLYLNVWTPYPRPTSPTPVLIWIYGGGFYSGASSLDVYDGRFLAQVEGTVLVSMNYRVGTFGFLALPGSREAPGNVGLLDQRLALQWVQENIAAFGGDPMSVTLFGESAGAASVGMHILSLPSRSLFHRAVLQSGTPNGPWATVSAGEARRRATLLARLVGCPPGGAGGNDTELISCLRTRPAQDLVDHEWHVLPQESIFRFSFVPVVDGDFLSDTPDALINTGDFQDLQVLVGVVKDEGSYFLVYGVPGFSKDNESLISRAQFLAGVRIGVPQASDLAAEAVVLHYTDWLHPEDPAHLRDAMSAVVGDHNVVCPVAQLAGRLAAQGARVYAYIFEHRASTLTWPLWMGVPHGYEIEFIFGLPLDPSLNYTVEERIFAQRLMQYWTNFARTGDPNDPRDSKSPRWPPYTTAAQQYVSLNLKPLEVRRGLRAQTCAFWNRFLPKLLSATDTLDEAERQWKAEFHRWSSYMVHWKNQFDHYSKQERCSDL

Turning to `CCNC(=O)Oc1cnccc1N=CN(C)C` [4-[[(Dimethylamino)methylene]amino]-3-pyridinol ethylcarbamate], the IC50 in experiment [1] worked out at 9.37 µM. The “% of Animals with Scopolamine Induced Memory Deficit Reversal” value in experiment [2] (0.1 mg/kg) was found to be 20.0%; in experiment [2] (0.3 mg/kg) it was 21.4%.

Take `CNC(=O)Oc1cnccc1N=CN(C)C` [4-[[(Dimethylamino)methylene]amino]-3-pyridinol methylcarbamate]: the IC50 in experiment [1] was 12.6 µM.

Values taken from patent publication US5821239A (priority 1996, dated 1998).
